Assay results taken from publication PMC4354951 (European journal of medicinal chemistry, 2008).

Experiments:
P2X1R = details: cited from earlier work
P2Y1R = details: cited from earlier work
P2X2/3Rs = details: cited from earlier work
ecto-5′-nucleotidases = details: muscle strip preparations, 60 min incubation ref 21; cited from earlier work
[1] = tested on: 1321N1 astrocytoma and C6 glioma cells; details: via NPPs and CD73 ref 39; cited from earlier work
[2] = pKa and degree of ionization of phosphate/phosphonate; assay type: physicochemical; details: physiological conditions, pH 7.4
human P2Y4 receptor = human P2Y4 receptor (Homo sapiens, UniProt P51582); assay: Increase in [Ca2+]i in 1321N1 astrocytoma cells expressing P2Y4 receptor; assay type: cell-based
Sequence of human P2Y4 receptor (P51582 whole entry): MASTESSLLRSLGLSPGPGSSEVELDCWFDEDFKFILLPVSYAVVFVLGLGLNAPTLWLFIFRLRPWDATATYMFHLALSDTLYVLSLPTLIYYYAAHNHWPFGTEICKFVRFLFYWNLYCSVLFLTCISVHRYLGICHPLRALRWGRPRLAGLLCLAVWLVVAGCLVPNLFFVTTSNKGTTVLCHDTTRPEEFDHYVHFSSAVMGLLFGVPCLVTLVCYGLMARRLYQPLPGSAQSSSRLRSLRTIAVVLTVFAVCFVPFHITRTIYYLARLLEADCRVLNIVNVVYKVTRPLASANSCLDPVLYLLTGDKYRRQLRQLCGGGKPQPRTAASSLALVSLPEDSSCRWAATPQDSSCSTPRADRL

human NTPDase8 = biological target: T1, human NTPDase8 (Homo sapiens, UniProt Q5MY95); assay: Hydrolysis by NTPDase8; assay type: biochemical; details: 100 μM substrate; relative to ATP hydrolysis (100%)
T1 sequence (Q5MY95 1-495): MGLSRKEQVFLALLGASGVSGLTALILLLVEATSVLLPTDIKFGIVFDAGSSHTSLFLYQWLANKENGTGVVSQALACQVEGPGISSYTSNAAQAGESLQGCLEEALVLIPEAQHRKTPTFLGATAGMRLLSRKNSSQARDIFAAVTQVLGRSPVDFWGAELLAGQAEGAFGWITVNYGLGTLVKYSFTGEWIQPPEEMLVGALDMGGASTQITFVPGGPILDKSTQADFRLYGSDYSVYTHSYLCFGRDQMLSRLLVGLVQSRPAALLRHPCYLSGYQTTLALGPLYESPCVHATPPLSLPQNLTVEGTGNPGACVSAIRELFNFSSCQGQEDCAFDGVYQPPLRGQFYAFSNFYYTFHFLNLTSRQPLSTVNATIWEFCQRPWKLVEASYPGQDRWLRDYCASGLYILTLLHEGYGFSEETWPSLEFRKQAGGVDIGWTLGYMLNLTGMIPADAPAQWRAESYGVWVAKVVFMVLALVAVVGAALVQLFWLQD

rat P2Y6 receptor = rat P2Y6 receptor (Rattus norvegicus, UniProt Q63371); assay: Increase in [Ca2+]i in 1321N1 astrocytoma cells expressing P2Y6 receptor; assay type: cell-based
Sequence of rat P2Y6 receptor (Q63371 whole entry): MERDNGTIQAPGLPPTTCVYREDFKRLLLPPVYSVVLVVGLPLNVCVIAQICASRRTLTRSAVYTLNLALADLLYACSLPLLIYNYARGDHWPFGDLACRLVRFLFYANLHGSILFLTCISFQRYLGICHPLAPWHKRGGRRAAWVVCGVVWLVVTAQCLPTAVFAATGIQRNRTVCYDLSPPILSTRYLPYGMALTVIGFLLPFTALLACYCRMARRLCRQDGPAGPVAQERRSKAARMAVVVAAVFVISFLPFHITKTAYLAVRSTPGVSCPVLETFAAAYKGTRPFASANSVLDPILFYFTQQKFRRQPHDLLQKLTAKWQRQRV

turkey P2Y1 receptor = turkey P2Y1 receptor (Meleagris gallopavo, UniProt P49652); assay type: cell-based; details: 1321N1 cell transfectants
Sequence of turkey P2Y1 receptor (P49652 whole entry): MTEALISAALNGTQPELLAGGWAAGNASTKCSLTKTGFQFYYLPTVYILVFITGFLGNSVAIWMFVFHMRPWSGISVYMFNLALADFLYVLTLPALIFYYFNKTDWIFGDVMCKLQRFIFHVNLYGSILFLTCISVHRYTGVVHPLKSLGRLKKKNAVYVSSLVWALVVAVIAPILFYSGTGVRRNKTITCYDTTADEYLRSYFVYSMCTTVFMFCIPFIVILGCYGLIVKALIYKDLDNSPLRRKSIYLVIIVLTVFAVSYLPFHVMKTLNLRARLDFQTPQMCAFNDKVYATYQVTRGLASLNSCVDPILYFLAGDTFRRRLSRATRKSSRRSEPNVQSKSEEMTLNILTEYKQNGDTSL

[3] = Chemical hydrolysis under gastric juice-like conditions; assay type: physicochemical; details: pH 1.4, 37 °C
human P2Y2 receptor = human P2Y2 receptor (Homo sapiens, UniProt P41231); assay: Increase in [Ca2+]i in 1321N1 astrocytoma cells expressing P2Y2 receptor; assay type: cell-based
Sequence of human P2Y2 receptor (P41231 whole entry): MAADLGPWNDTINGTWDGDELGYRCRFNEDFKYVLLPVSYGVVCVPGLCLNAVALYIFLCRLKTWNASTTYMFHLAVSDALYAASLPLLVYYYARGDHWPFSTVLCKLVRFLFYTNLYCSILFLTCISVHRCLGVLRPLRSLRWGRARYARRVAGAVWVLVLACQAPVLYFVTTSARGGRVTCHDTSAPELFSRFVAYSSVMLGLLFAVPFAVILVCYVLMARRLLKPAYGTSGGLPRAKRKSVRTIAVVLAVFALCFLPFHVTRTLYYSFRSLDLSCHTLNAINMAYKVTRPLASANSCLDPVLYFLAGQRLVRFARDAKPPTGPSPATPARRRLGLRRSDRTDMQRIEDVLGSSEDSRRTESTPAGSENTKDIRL

human NTPDase1 = biological target: T2, human NTPDase1 (Homo sapiens, UniProt P49961); assay: Hydrolysis by NTPDase1; assay type: biochemical; details: 100 μM substrate; relative to ATP hydrolysis (100%)
T2 sequence (P49961 1-510): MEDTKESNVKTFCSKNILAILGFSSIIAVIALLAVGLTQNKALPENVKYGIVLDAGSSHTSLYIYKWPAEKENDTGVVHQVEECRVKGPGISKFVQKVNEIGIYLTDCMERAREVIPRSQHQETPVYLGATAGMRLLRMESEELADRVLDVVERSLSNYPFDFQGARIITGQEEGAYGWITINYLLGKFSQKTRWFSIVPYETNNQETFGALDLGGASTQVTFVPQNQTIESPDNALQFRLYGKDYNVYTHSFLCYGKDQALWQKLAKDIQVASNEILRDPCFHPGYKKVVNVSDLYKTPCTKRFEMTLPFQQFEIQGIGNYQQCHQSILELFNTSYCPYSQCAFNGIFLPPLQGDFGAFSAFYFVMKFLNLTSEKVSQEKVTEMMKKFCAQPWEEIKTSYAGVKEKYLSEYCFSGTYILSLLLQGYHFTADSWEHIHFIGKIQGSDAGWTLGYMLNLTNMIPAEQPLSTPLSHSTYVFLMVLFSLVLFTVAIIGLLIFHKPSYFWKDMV

human NTPDase3 = biological target: T3, human NTPDase3 (Homo sapiens, UniProt O75355); assay: Hydrolysis by NTPDase3; assay type: biochemical; details: 100 μM substrate; relative to ATP hydrolysis (100%)
T3 sequence (O75355 1-529): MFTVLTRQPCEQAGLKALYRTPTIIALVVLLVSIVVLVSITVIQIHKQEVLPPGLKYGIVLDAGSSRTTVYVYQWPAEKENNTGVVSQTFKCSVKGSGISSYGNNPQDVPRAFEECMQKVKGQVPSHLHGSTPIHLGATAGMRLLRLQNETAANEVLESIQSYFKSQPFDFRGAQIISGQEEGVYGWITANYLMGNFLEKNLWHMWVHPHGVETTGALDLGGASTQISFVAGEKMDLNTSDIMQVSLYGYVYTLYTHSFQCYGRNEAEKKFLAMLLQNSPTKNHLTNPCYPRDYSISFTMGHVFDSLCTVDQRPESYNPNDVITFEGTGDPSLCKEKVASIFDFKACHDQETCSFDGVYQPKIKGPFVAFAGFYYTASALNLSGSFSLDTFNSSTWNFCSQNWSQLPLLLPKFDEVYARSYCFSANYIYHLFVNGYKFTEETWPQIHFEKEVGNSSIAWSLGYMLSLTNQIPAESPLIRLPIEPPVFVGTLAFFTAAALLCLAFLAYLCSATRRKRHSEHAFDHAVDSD

[4] = Stability in human blood serum, Method A; assay type: in vitro ADME; details: half-life vs ATP
[5] = pH 1.4, 37 °C ref 30; cited from earlier work
perfused rat pancreas = perfused rat pancreas ref 31, cited from earlier work
[6] = physiological pH ref 30; cited from earlier work
P2Y2R = details: cited from earlier work

In the case of `Nc1ncnc2c1ncn2[C@@H]1O[C@H](COP(=O)(O)OP(=O)(O)CP(=O)(O)O)[C@@H](O)[C@H]1O` [β,γ-CH2–ATP], the “activity at P2X1R” value (P2X1R) is given as “P2X1R agonist”, the “activation of P2Y1Rs” value (P2Y1R) is given as “did not activate” and the “antagonism at P2Y1R” value (P2Y1R; responses elicited by 2-MeS–ADP ref 48) is given as “weak competitive antagonist”. For the same molecule, the “activity at P2X2/3Rs” value (P2X2/3Rs) was “weak agonist”, the “degradation by ecto-5′-nucleotidases” value (ecto-5′-nucleotidases) was “no degradation” and the “metabolism in cells” value [1] was “rapidly metabolized to adenosine”.
With `CSc1nc(N)c2ncn([C@@H]3O[C@H](COP(=O)(O)OP(=O)(O)CP(=O)(O)O)[C@@H](O)[C@H]3O)c2n1` [compound 2, 2-MeS–adenosine-5′-O-triphosphate-β,γ-CH2] the fraction ionized [2] was 9%, the EC50 (human P2Y4 receptor) was over 100 µM and the “Relative activity of NTPDase8” value (human NTPDase8) was 7–8%. For the same molecule, the EC50 (rat P2Y6 receptor) was over 100 µM, the “agonist activity at P2Y1R” value (turkey P2Y1 receptor) was “potent P2Y1R agonists” and the “improvement of chemical stability as compared to 1” value [3] was about 11 fold. For the same molecule, the EC50 (human P2Y2 receptor) was over 100 µM, the “agonist activity at P2Y2R” value (human P2Y2 receptor; 1321N1 cell transfectants) was “inactivity” and the “Relative activity of NTPDase1” value (human NTPDase1) was 7–8%. The “Relative activity of NTPDase3” value (human NTPDase3) was 7–8%, the “degradation by ecto-5′-nucleotidases” value (ecto-5′-nucleotidases) was “no degradation” and the “enhancement of the metabolic stability of ATP” value [4] was at least 3.5 fold.
For 2-MeS–ATP-α-B [compound 1], the “t1/2 of acidic hydrolysis” value [5] is given as 5.9 h, the “enhancement of insulin secretion as compared to basal secretion” value (perfused rat pancreas) is given as “ninefold” and the EC50 (perfused rat pancreas; read-out: EC50 of insulin secretion) is given as 0.028 µM. The “t1/2 at physiological pH” value [6] was 1395 h and the “activity at P2Y2R” value (P2Y2R) was “very weak agonists”.
